According to PMC6332353, “New Sulphated Flavonoids from Wissadula periplocifolia (L.) C. Presl (Malvaceae)” (Molecules, 2015):
Values after ≈ are worked out from the molar mass of the structure shown.

Columns and labels:
[1] = tested on: prostate carcinoma cell line (PC-3M); experiment: alamarBlue cytotoxicity assay, PC-3M cells; assay type: cell-based; details: Homo sapiens, tumour cell line, 24 h treatment, 0.4–100 µg/mL, mean ± SD
Description: (§1) All media and supplements were obtained from Invitrogen (Paisley, UK). The following human cell lines were used in the current study: the human glioma cancer cell line (UVW) previously described, the prostate carcinoma cell line (PC-3M), the normal prostate epithelial cell line (PNT2A), and the normal foreskin fibroblast cell line (Hs27). All cell lines were obtained from in house stocks (UVW) or from stocks purchased from the ATCC (Rockville, MD, USA) and are routinely genetically verified and confirmed as free from mycoplasma contamination. UVW, PNT2A, and Hs27 cells were maintained in Eagle’s Minimum Essential Medium (MEM), RPMI 1640 Medium, and Dulbecco’s Modified Eagle’s Medium (DMEM), respectively. All media were supplemented with 10% v/v fetal bovine serum, penicillin (100 units/mL), streptomycin (100 μg/mL), Fungizone (2.5 μg/mL of amphotericin B), and L-glutamine (2 mM). The PC-3M cells were cultured in the same MEM medium as described for UVW cells with the addition of 1% v/v MEM Non-essential Amino Acids Solution, 1% v/v MEM Vitamin Solution, and 1mM sodium pyruvate. The cells were cultured at 37 °C in a humidified atmosphere of 5% CO2.
(§2) Each sample tested was dissolved in DMSO at 50 mg/mL and kept at −20 °C until extract preparation was proceeded. For the biological assays, the samples were diluted in culture medium to get the selected concentrations. The toxicity of the flavonoids on UVW, PC-3M, PNT2A, and Hs27 cells was assessed by the fluorometric measurement of metabolic activity using the AlamarBlue assay (Invitrogen). Briefly, cells were seeded on 96-well culture plates (3.3 × 10^3cells/well). […] Fluorescence was measured on a micro plate fluorescence reader (Spectramax Gemini XS, Molecular Devices, Sunnyvale, CA, USA) using an excitation wavelength of 560 nm and an emission wavelength of 590 nm. Cell viability was calculated and plotted as the percentage of metabolically active cells relative to the control. […]

[2] = tested on: normal prostate epithelial cell line (PNT2A); experiment: alamarBlue cytotoxicity assay, PNT2A cells; assay type: cell-based; details: Homo sapiens, 24 h treatment, 0.4–100 µg/mL, mean ± SD
Description: as §1, §2

[3] = tested on: human glioma cancer cell line (UVW); experiment: alamarBlue cytotoxicity assay, UVW cells; assay type: cell-based; details: tumour cell line, 24 h treatment, 0.4–100 µg/mL, mean ± SD
Description: as §1, §2

[4] = tested on: normal foreskin fibroblast cell line (Hs27); experiment: alamarBlue cytotoxicity assay, Hs27 cells; assay type: cell-based; details: Homo sapiens, 24 h treatment, 0.4–100 µg/mL, mean ± SD
Description: All media and supplements were obtained from Invitrogen (Paisley, UK). The following human cell lines were used in the current study: the human glioma cancer cell line (UVW) previously described, the prostate carcinoma cell line (PC-3M), the normal prostate epithelial cell line (PNT2A), and the normal foreskin fibroblast cell line (Hs27). All cell lines were obtained from in house stocks (UVW) or from stocks purchased from the ATCC (Rockville, MD, USA) and are routinely genetically verified and confirmed as free from mycoplasma contamination. UVW, PNT2A, and Hs27 cells were maintained in Eagle’s Minimum Essential Medium (MEM), RPMI 1640 Medium, and Dulbecco’s Modified Eagle’s Medium (DMEM), respectively. All media were supplemented with 10% v/v fetal bovine serum, penicillin (100 units/mL), streptomycin (100 μg/mL), Fungizone (2.5 μg/mL of amphotericin B), and L-glutamine (2 mM). […] The toxicity of the flavonoids on UVW, PC-3M, PNT2A, and Hs27 cells was assessed by the fluorometric measurement of metabolic activity using the AlamarBlue assay (Invitrogen). […] Fluorescence was measured on a micro plate fluorescence reader (Spectramax Gemini XS, Molecular Devices, Sunnyvale, CA, USA) using an excitation wavelength of 560 nm and an emission wavelength of 590 nm. Cell viability was calculated and plotted as the percentage of metabolically active cells relative to the control. […]

[5] = tested on: lung cancer A549; parameters: method as in PMID 25000464; details: cited from earlier work
[6] = tested on: sarcoma 180; parameters: method as in earlier work; details: tumours implanted in mice; cited from earlier work
[7] = tested on: carcinoma of Ehrlich tumours; parameters: method as in earlier work; details: tumours implanted in mice; cited from earlier work

COc1ccc(-c2cc(=O)c3c(O)cc(OC)c(O)c3o2)cc1 [7,4′-di-O-methylisoscutellarein]
IC50 [1]: > 100 µg/mL | IC50 [2]: 88.7 ± 1.13 µg/mL (≈ 282 µM) | IC50 [3]: 98.5 ± 1.13 µg/mL (≈ 314 µM)

COc1ccc(-c2cc(=O)c3c(O)cc(O)cc3o2)cc1 [acacetin]
IC50 [1]: 21.1 ± 1.16 µg/mL (≈ 74.3 µM) | IC50 [4]: > 100 µg/mL | IC50 [2]: 51.3 ± 1.09 µg/mL (≈ 181 µM) | IC50 [3]: 27.4 ± 1.09 µg/mL (≈ 96.3 µM)

O=C(/C=C/c1ccc(O)cc1)OC[C@H]1O[C@@H](Oc2c(-c3ccc(O)cc3)oc3cc(O)cc(O)c3c2=O)[C@H](O)[C@@H](O)[C@@H]1O [tiliroside, kaempferol-3-O-b-D-(6′′-E-p-coumaroyl) glucopyranoside]
IC50 [1]: 60.5 ± 1.12 µg/mL (≈ 102 µM) | toxic effects on A549 cells (in words) [5]: toxic effects | IC50 [2]: > 100 µg/mL | tumour growth inhibition, sarcoma 180 [6]: significantly inhibited the growth | IC50 [3]: > 100 µg/mL | tumour growth inhibition, carcinoma of Ehrlich [7]: significantly inhibited the growth
